Assay results published in the supplement of paper PMC10307832.

Key:
Assay in all cases: relative viability (nuclei count vs DMSO), 5 days (fraction); higher = more cells survive
NCI-H322M = test system: NCI-H322M
How it was run: (§1)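 Dosing by pin tool came one day after lung cancer cell lines were seeded in 1536-well plates, using either one drug or a fixed anchor-drug dose plus five library-drug doses (not always all listed) in √10 steps. After 5 days, nuclei were counted on 4× images. Relative viability is treated-well nuclei count divided by vehicle-well nuclei count, and values are medians of duplicate plates.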

NCI-H838 = test system: NCI-H838
How it was run: as §1

NCI-H1666 = test system: NCI-H1666
How it was run: as §1

PC-3 [JPC-3] = test system: PC-3 [JPC-3]
How it was run: as §1

NCI-H1915 = test system: NCI-H1915
How it was run: as §1

UMC-11 = test system: UMC-11
How it was run: as §1

LK-2 = test system: LK-2
How it was run: as §1

NCI-H2087 = test system: NCI-H2087
How it was run: as §1

SK-MES-1 = test system: SK-MES-1
How it was run: as §1

NCI-H1395 = test system: NCI-H1395
How it was run: as §1

NCI-H358 = test system: NCI-H358
How it was run: as §1

PC-14 = test system: PC-14
How it was run: as §1

LCLC-97TM1 = test system: LCLC-97TM1
How it was run: as §1

NCI-H1651 = test system: NCI-H1651
How it was run: as §1

NCI-H2085 = test system: NCI-H2085
How it was run: as §1

NCI-H1792 = test system: NCI-H1792
How it was run: as §1

ABC-1 = test system: ABC-1
How it was run: as §1

NCI-H1355 = test system: NCI-H1355
How it was run: as §1

A-427 = test system: A-427
How it was run: as §1

NCI-H661 = test system: NCI-H661
How it was run: as §1

H3255 = test system: H3255
How it was run: as §1

`O=c1[nH]c2ccccc2n1C1CCN(CCCC(c2ccc(F)cc2)c2ccc(F)cc2)CC1` [Pimozide] + Nc1ncn([C@H]2C[C@H](O)[C@@H](CO)O2)c(=O)n1 [Decitabine] (partner 2 µM) was tested, and the relative viability (NCI-H322M; first compound 0.08 µM) was 0.581, the relative viability (NCI-H322M; first compound 0.253 µM) was 0.705 and the relative viability (NCI-H322M; first compound 0.8 µM) was 0.719. The relative viability (NCI-H322M; first compound 2.53 µM) was 0.772, the relative viability (NCI-H322M; first compound 8 µM) was 0.632 and the relative viability (NCI-H838; first compound 0.08 µM) was 0.487. The relative viability (NCI-H838; first compound 0.253 µM) was 0.395, the relative viability (NCI-H838; first compound 0.8 µM) was 0.42 and the relative viability (NCI-H838; first compound 2.53 µM) was 0.43. The relative viability (NCI-H838; first compound 8 µM) was 0.469, the relative viability (NCI-H1666; first compound 0.08 µM) was 0.688 and the relative viability (NCI-H1666; first compound 0.253 µM) was 0.738. For the same molecule, the relative viability (NCI-H1666; first compound 0.8 µM) was 0.696, the relative viability (NCI-H1666; first compound 2.53 µM) was 0.695 and the relative viability (NCI-H1666; first compound 8 µM) was 0.784. It also gave a relative viability (PC-3 [JPC-3]; first compound 0.253 µM) of 0.838, a relative viability (PC-3 [JPC-3]; first compound 0.8 µM) of 0.823 and a relative viability (PC-3 [JPC-3]; first compound 2.53 µM) of 0.904. For the same molecule, the relative viability (PC-3 [JPC-3]; first compound 8 µM) was 0.854, the relative viability (NCI-H1915; first compound 0.08 µM) was 0.267 and the relative viability (NCI-H1915; first compound 0.253 µM) was 0.248. The relative viability (NCI-H1915; first compound 2.53 µM) was 0.262, the relative viability (NCI-H1915; first compound 8 µM) was 0.262 and the relative viability (UMC-11; first compound 0.08 µM) was 0.638. The relative viability (UMC-11; first compound 0.253 µM) was 0.579, the relative viability (UMC-11; first compound 0.8 µM) was 0.53 and the relative viability (UMC-11; first compound 2.53 µM) was 0.593. It also gave a relative viability (UMC-11; first compound 8 µM) of 1.03, a relative viability (LK-2; first compound 0.08 µM) of 0.25 and a relative viability (LK-2; first compound 0.253 µM) of 0.289. It also gave a relative viability (LK-2; first compound 0.8 µM) of 0.28, a relative viability (LK-2; first compound 2.53 µM) of 0.296 and a relative viability (LK-2; first compound 8 µM) of 0.33. It also gave a relative viability (NCI-H2087; first compound 0.08 µM) of 0.277, a relative viability (NCI-H2087; first compound 0.253 µM) of 0.328 and a relative viability (NCI-H2087; first compound 2.53 µM) of 0.342. For the same molecule, the relative viability (NCI-H2087; first compound 8 µM) was 0.275, the relative viability (SK-MES-1; first compound 0.08 µM) was 0.389 and the relative viability (SK-MES-1; first compound 0.253 µM) was 0.39. For the same molecule, the relative viability (SK-MES-1; first compound 0.8 µM) was 0.355, the relative viability (SK-MES-1; first compound 2.53 µM) was 0.454 and the relative viability (SK-MES-1; first compound 8 µM) was 0.774. For the same molecule, the relative viability (NCI-H1395; first compound 0.08 µM) was 0.692, the relative viability (NCI-H1395; first compound 0.253 µM) was 0.74 and the relative viability (NCI-H1395; first compound 0.8 µM) was 0.633. For the same molecule, the relative viability (NCI-H1395; first compound 2.53 µM) was 0.691, the relative viability (NCI-H1395; first compound 8 µM) was 0.637 and the relative viability (NCI-H358; first compound 0.08 µM) was 0.196. It also gave a relative viability (NCI-H358; first compound 0.253 µM) of 0.219, a relative viability (NCI-H358; first compound 0.8 µM) of 0.315 and a relative viability (NCI-H358; first compound 2.53 µM) of 0.213. For the same molecule, the relative viability (NCI-H358; first compound 8 µM) was 0.228, the relative viability (PC-14; first compound 0.253 µM) was 0.221 and the relative viability (PC-14; first compound 0.8 µM) was 0.228. For the same molecule, the relative viability (PC-14; first compound 2.53 µM) was 0.144, the relative viability (PC-14; first compound 8 µM) was 0.231 and the relative viability (LCLC-97TM1; first compound 0.08 µM) was 0.229. For the same molecule, the relative viability (LCLC-97TM1; first compound 0.253 µM) was 0.245, the relative viability (LCLC-97TM1; first compound 0.8 µM) was 0.183 and the relative viability (LCLC-97TM1; first compound 2.53 µM) was 0.221. For the same molecule, the relative viability (LCLC-97TM1; first compound 8 µM) was 0.228, the relative viability (NCI-H1651; first compound 0.08 µM) was 0.597 and the relative viability (NCI-H1651; first compound 0.253 µM) was 0.507. The relative viability (NCI-H1651; first compound 0.8 µM) was 0.719, the relative viability (NCI-H1651; first compound 2.53 µM) was 0.588 and the relative viability (NCI-H1651; first compound 8 µM) was 0.611. The relative viability (NCI-H2085; first compound 0.08 µM) was 0.545, the relative viability (NCI-H2085; first compound 0.253 µM) was 0.544 and the relative viability (NCI-H2085; first compound 0.8 µM) was 0.573. The relative viability (NCI-H2085; first compound 2.53 µM) was 0.551, the relative viability (NCI-H2085; first compound 8 µM) was 0.585 and the relative viability (NCI-H1792; first compound 0.08 µM) was 0.59. It also gave a relative viability (NCI-H1792; first compound 0.253 µM) of 0.53, a relative viability (NCI-H1792; first compound 0.8 µM) of 0.33 and a relative viability (NCI-H1792; first compound 2.53 µM) of 0.534. It also gave a relative viability (NCI-H1792; first compound 8 µM) of 0.547, a relative viability (ABC-1; first compound 0.08 µM) of 1.18 and a relative viability (ABC-1; first compound 0.253 µM) of 0.831. It also gave a relative viability (ABC-1; first compound 0.8 µM) of 1.22, a relative viability (ABC-1; first compound 2.53 µM) of 1.08 and a relative viability (ABC-1; first compound 8 µM) of 1.02. The relative viability (NCI-H1355; first compound 0.08 µM) was 0.345, the relative viability (NCI-H1355; first compound 0.253 µM) was 0.332 and the relative viability (NCI-H1355; first compound 0.8 µM) was 0.339. For the same molecule, the relative viability (NCI-H1355; first compound 2.53 µM) was 0.339, the relative viability (NCI-H1355; first compound 8 µM) was 0.337 and the relative viability (A-427; first compound 0.08 µM) was 0.527. The relative viability (A-427; first compound 0.253 µM) was 0.583, the relative viability (A-427; first compound 0.8 µM) was 0.606 and the relative viability (A-427; first compound 2.53 µM) was 0.479. The relative viability (A-427; first compound 8 µM) was 0.57, the relative viability (NCI-H661; first compound 0.08 µM) was 0.564 and the relative viability (NCI-H661; first compound 0.253 µM) was 0.581. It also gave a relative viability (NCI-H661; first compound 0.8 µM) of 0.48, a relative viability (NCI-H661; first compound 2.53 µM) of 0.497 and a relative viability (NCI-H661; first compound 8 µM) of 0.495. The relative viability (H3255; first compound 0.253 µM) was 0.538, the relative viability (H3255; first compound 0.8 µM) was 0.496 and the relative viability (H3255; first compound 2.53 µM) was 0.626. The relative viability (H3255; first compound 8 µM) was 0.734.
